In patent US9334263B2, “Compositions useful for treating disorders related to kit” (BLUEPRINT MEDICINES CORPORATION, priority 2013, dated 2016):

Legend:
[1] = target: T1, Kit D816V (HMC1.2 cells, Kit V560G and D816V) (Homo sapiens, UniProt P10721, D816V/V560G); assay: HMC1.2 autophosphorylation assay (AlphaLISA, phospho-Y719 c-Kit); assay type: cell-based; details: Kit autophosphorylation at tyrosine 719, 90 minutes, read-out: Cellular Activity
T1 construct: endogenous in cells; host or cells: HMC1.2 cells
Procedure, shortened: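 Serum-starved (overnight, serum-free IMDM) HMC1.2 cells were treated for 90 min with a 10-point compound series (25 uM–95.4 pM, 0.25% DMSO final). Lysates were probed with phospho-Y719 and total c-Kit antibodies (15 nM final) plus AlphaLISA acceptor and streptavidin donor beads (2 h each, RT), with AlphaScreen read-out.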

D816V Kit = target: T2, D816V Kit (Homo sapiens, UniProt P10721, D816V); assay: Kit D816V assay at Km (Caliper electrophoretic mobility shift); assay type: biochemical; details: 15 uM ATP, 25 C, 90 minutes
T2 construct: purchased Carna Bioscience 08-156
Procedure, shortened: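 Read-out is the ratio of phosphorylated to unphosphorylated fluorescent peptide, resolved by mobility shift on a Caliper EZ Reader 2.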

T1 sequence (P10721 26-976 V560G/D816V): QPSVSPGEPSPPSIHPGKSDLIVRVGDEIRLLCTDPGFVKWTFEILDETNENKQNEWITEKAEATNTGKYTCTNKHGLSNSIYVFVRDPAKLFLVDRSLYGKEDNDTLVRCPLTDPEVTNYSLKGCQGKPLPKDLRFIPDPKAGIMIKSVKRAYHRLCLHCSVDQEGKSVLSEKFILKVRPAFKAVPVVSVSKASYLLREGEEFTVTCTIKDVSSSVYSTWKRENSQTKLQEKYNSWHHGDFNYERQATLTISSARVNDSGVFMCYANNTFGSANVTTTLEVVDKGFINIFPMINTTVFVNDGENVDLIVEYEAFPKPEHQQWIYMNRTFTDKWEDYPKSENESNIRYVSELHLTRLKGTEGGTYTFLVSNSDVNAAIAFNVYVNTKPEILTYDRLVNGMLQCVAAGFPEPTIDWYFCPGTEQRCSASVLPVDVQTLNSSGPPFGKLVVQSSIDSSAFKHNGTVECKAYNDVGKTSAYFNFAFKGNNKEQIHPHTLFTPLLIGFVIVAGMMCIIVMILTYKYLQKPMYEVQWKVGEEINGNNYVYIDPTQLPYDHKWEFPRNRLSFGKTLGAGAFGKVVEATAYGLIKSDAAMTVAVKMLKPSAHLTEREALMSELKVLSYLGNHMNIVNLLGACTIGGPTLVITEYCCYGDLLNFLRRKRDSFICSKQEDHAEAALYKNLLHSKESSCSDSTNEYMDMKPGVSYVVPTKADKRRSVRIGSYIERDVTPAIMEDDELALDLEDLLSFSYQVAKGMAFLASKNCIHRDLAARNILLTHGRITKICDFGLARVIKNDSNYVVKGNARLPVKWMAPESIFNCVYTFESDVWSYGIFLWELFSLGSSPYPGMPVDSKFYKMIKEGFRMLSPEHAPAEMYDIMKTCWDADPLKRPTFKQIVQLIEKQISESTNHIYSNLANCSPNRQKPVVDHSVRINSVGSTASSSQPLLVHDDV
T2 sequence (P10721 26-976 D816V): as the sequence (P10721 26-976 V560G/D816V) above, with G535V counted along it

SMILES	IC50 [1] [nM]	IC50 (D816V Kit) [nM]
c1cnc(N2CCN(c3ncnc(Nc4ccc5c(c4)CNCC5)n3)CC2)nc1 [Compound 2]	1000 to 10000	1.01 to 10
OCCNc1ccc(Nc2ncnc(N3CCN(c4ncc(Cc5ccccc5)cn4)CC3)n2)cn1 [Compound 58]	100 to 1000	1.01 to 10
CN1CCC(CCNc2ncnc(N3CCN(c4ncc(Cc5ccccc5)cn4)CC3)n2)CC1 [Compound 35]	> 10000	> 100
CC(C)(O)CN1CCc2ccc(Nc3ncnc(N4CCN(c5ncc(Cc6ccccc6)cn5)CC4)n3)cc2C1 [Compound 262]	10 to 100	< 1
COc1cccc(Cc2cnc(N3CCN(c4ncnc(Nc5cnn(C[C@@H]6CNCCO6)c5)n4)CC3)nc2)c1 [Compound 249]	10 to 100	1.01 to 10
C[C@@H]1CN(c2ncnc(Nc3ccc(N4CCC[C@@H](O)C4)cc3)n2)CCN1c1ncc(Cc2ccccc2)cn1 [Compound 222]	10 to 100	1.01 to 10
Fc1cccc(Oc2cnc(N3CCN(c4ncnc(Nc5cnn(C[C@@H]6CNCCO6)c5)n4)CC3)nc2)c1 [Compound 204]	100 to 1000	1.01 to 10
c1ccc(Cc2cnc(N3CCN(c4ncnc(Nc5ccc6c(c5)CN(C5CC5)CC6)n4)CC3)nc2)cc1 [Compound 145]	10 to 100	10 to 100
O[C@H]1CCN(c2ccc(Nc3ncnc(N4CCN(c5ncc(Cc6ccccc6)cn5)CC4)n3)cc2)C1 [Compound 112]	100 to 1000	1.01 to 10
c1ccc(Cc2cnc(N3CCN(c4ncnc(Nc5ccc6cn[nH]c6c5)n4)CC3)nc2)cc1 [Compound 21]	100 to 1000	1.01 to 10
Fc1cccc(Cc2cnc(N3CCN(c4ncnc(Nc5ccc6c(c5)CNCC6)n4)CC3)nc2)c1F [Compound 137]	10 to 100	1.01 to 10
c1ccc(Cc2cnc(N3CCN(c4ncnc(Nc5cnn(C[C@@H]6COCCO6)c5)n4)CC3)nc2)cc1 [Compound 134]	10 to 100	< 1
[2H]C([2H])(c1ccccc1)c1cnc(N2CCN(c3ncnc(Nc4cnn(C[C@@H]5CNCCO5)c4)n3)CC2)nc1 [Compound 141]	10 to 100	1.01 to 10

The next lines start with the values.

IC50 [1] [nM]	IC50 (D816V Kit) [nM]	SMILES
10 to 100	< 1	Cc1c(Nc2ncnc(N3CCN(c4ncc(Cc5ccccc5)c(N)n4)CC3)n2)cnn1C[C@@H]1CNCCO1 [Compound 245]
< 10	< 1	CC(C)(O)Cn1cc(Nc2ncnc(N3CCN(c4ncc([C@@](C)(O)c5ccc(F)cc5)cn4)CC3)n2)cn1 [Compound 208]
< 10	1.01 to 10	CC1(C)CNCc2cc(Nc3ncnc(N4CCN(c5ncc(Cc6ccccc6)cn5)CC4)n3)ccc21 [Compound 99]
10 to 100	< 1	Cc1c(Nc2ncnc(N3CCN(c4ncc(Cc5ccccc5F)cn4)CC3)n2)cnn1C[C@@H]1CNCCO1 [Compound 272]
10 to 100	< 1	OC[C@@H](O)c1ccc(Nc2ncnc(N3CCN(c4ncc(Cc5ccc(F)cc5)cn4)CC3)n2)cc1 [Compound 92]
< 10	< 1	Nc1nc(N2CCN(c3ncnc(Nc4ccc5c(c4)CN(CCO)CC5)n3)CC2)ncc1Cc1ccccc1 [Compound 229]
